# Source: paper PMC7496931, “Activation of Sirtuin 2 Inhibitors Employing Photoswitchable Geometry and Aqueous Solubility” (Chemmedchem, 2020)
# Like-named read-outs stand apart in the source and are kept apart here.
# Key:
# Sirt1 = biological target: T1, Sirt1 (Homo sapiens, UniProt Q96EB6); assay: Fluorescence-based ZMAL deacetylase activity assay, Sirt1; assay type: biochemical; details: non-irradiated
# T1 construct: Expression and purification of Sirt1_133−747, Sirt2_56−356, and Sirt3_118−395 was carried out as described previously; made in house
# T1 sequence (Q96EB6 133-747): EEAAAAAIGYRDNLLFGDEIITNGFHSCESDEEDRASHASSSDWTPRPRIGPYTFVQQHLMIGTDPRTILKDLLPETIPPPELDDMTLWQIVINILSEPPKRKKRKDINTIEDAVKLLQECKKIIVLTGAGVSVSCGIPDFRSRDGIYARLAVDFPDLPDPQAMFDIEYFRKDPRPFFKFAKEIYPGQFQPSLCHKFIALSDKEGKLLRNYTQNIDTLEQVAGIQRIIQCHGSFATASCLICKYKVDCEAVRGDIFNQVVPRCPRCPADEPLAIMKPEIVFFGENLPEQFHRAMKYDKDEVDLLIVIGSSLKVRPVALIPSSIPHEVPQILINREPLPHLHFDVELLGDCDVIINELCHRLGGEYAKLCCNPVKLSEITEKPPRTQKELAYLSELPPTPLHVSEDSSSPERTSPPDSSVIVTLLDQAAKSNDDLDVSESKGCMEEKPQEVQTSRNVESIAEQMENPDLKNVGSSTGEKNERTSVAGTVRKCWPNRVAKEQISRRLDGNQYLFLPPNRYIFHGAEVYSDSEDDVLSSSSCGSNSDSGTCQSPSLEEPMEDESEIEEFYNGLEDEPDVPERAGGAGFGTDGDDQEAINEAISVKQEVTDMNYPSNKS
# Protocol: (§1) The effect of the compounds on deacetylase activity of three human sirtuin isotypes (Sirt1–3) was investigated by a homogeneous fluorescence‐based assay, using (Z)‐Lys(acetyl)‐AMC (ZMAL) as substrate. In order to determine the impact of photoisomerization, the respective compounds were irradiated (365 nm, 5 min) in DMSO prior to incubation in the enzyme assay mixture. The results of the irradiated probes were finally compared to non‐irradiated measurements.
# (§2) Cloning, expression and purification of recombinant proteins: Expression and purification of Sirt1_133−747, Sirt2_56−356, and Sirt3_118−395 was carried out as described previously.27 Identity and purity were verified by SDS‐PAGE.
# (§3) Fluorescence‐based activity assay: The inhibitory effect of compounds on Sirt1–3 was detected via a previously reported fluorescence‐based assay.29 The synthetic substrate (Z)‐Lys(acetyl)‐AMC (ZMAL) is deacetylated by sirtuins, followed by tryptic digestion and thereby release of 7‐aminomethylcoumarin, leading to a fluorescent readout. Inhibition was determined by comparing percentage substrate conversion to a DMSO control after subtraction of the blank fluorescence signal. All compounds were tested at 100 or 50 μM and 10 μM respectively. […] IC50 values were calculated with OriginPro 9.0 G using a non‐linear regression to fit the dose response curve (Figure S6). An enzyme‐free blank control and a 100 % conversion control using AMC instead of ZMAL were measured as well. Inhibition measurements were performed in biological duplicates for all compounds. […]
# (§4) Fluorescence-Based Activity Assay (ZMAL-Assay)
# (§5) The influence of the synthesized compounds on the deacetylase activity of the class I sirtuins Sirt1–3 was determined in a homogenous fluorescence-based enzyme assay, using the artificial substrate Z-(Ac)Lys-AMC (ZMAL). ZMAL is processed by sirtuins yielding Z-Lys-AMC.
# (§6) The latter is subsequently cleaved by tryptic digestion, releasing 7-amino-4-methylcoumarin (AMC), excitation of which leads to a fluorescent read out (λex=390 nm; λem=460 nm). Instead, […]
# (§7) contribute to the fluorescence signal. Therefore, the fluorescence intensity is proportional to the activity of the respective sirtuin.
# (§8) After subtraction of the blank fluorescence signal (without enzyme) from the signal of the respective probe, the residual signal intensity is related to a 100 % conversion control (AMC), […]
# (§9) yielding the percentage substrate conversion. Comparison of the determined substrate conversion with a no-inhibition DMSO control yields the percentage inhibition at the respective […]
# (§10) For determination of IC50, inhibitory activity of the respective compound was determined at 8 to 10 distinct concentrations. The measured values were analysed by a non-linear fit to the dose-response curve using a four parameter logistic model (Figure S6):
# (§11) Figure S6: Non-linear regression of the dose-response curves of compounds 15c and 15f at the thermal equilibrium (∆, black) and after 5 minutes of 365 nm irradiation (red). […]
# A maximal polarization control using just DMSO and a minimal polarization control using 1 µL of the 400 µM solution of 22 instead of inhibitor were performed as well as a blank control containing 1 µL of DMSO in 19 µL assay buffer. The mixture was incubated 10 min at 37 °C […]
# (§12) (1 picture or pasted object on this page, not shown here)
# Sirt2 [1] = biological target: T2, Sirt2 (Homo sapiens, UniProt Q8IXJ6); assay: Fluorescence-based ZMAL deacetylase activity assay, Sirt2; assay type: biochemical; details: non-irradiated; for IC50: read-out: Sirt2 inhibition, IC50; for inhibition at 10 µM / inhibition at 100 µM: read-out: Sirt2 inhibition, percent inhibition relative to controls
# T2 construct: Expression and purification of Sirt1_133−747, Sirt2_56−356, and Sirt3_118−395 was carried out as described previously; made in house
# T2 sequence (Q8IXJ6 56-356): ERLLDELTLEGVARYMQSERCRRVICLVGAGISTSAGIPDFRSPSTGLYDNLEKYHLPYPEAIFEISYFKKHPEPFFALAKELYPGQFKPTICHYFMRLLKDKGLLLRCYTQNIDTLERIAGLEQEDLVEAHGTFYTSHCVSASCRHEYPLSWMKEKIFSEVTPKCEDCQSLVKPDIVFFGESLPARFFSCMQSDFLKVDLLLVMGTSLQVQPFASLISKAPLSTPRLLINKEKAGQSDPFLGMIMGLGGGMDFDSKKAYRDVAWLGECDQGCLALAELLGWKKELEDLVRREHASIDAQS
# Protocol: as §1, §2, §3, §4, §5, §6, §7, §8, §9, §10, §11
# (§13) A maximal polarization control using just DMSO and a minimal polarization control using 1 µL of the 400 µM solution of 22 instead of inhibitor were performed as well as a blank control containing 1 µL of DMSO in 19 µL assay buffer. The mixture was incubated 10 min at 37 °C
# Sirt3 = biological target: T3, Sirt3 (Homo sapiens, UniProt Q9NTG7); assay: Fluorescence-based ZMAL deacetylase activity assay, Sirt3; assay type: biochemical; details: non-irradiated; for IC50: read-out: Sirt3 inhibition, IC50
# T3 construct: Expression and purification of Sirt1_133−747, Sirt2_56−356, and Sirt3_118−395 was carried out as described previously; made in house
# T3 sequence (Q9NTG7 118-395): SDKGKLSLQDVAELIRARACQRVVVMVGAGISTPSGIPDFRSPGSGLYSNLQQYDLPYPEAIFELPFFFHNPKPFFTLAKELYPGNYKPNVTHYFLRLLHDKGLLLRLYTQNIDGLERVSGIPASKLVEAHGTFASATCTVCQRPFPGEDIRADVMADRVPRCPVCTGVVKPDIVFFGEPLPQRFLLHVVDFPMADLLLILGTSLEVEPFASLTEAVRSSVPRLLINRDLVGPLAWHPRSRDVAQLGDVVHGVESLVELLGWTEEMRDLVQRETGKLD
# Protocol: as §1, §2, §3, §4, §5, §6, §7, §8, §9, §10, §11, §13
# [2] = UV/Vis spectra and half-life of thermal Z→E isomerization; assay type: physicochemical
# Protocol: Photochemistry: All photoisomerization experiments were conducted under ruby light of 630 nm and total exclusion of daylight. Illumination was executed using a Bio‐Link 254 Crosslinker from Vilber‐Lourmat equipped with six Vilber‐Lourmat T8‐L lamps (8 W, 365 nm). Visible light radiation of 630 nm (ruby) and 452 nm (blue) was derived from a Paulmann FlexLED 3D strip. All compounds were irradiated in solution using spectrophotometric grade solvents. Photoisomerization and UV/Vis‐spectra measurement was conducted in quartz glass cuvettes (114‐QS, Hellma Analytics) at room temperature.
# UV/Vis Spectra and Half-Life of Thermal Isomerization
# The half-life of the thermal Z→E isomerization after 5 minutes of 365 nm irradiation was determined by UV/Vis-spectroscopy. Therefore, solutions of the respective compounds (50 µM) in 5%, 50% or 90% DMSO in enzyme assay buffer (v/v) were prepared. An initial spectrum of the thermal equilibrium was recorded. After 5 minutes of irradiation with 365 nm the increase of absorbance at the thermal equilibrium maximum (λ∆max) was recorded as exemplified by compound 15c (Figure S3). Absorbance at λ = λ ∆max was plotted as a function of time. Non-linear regression yielded the half-life of the thermal Z→E isomerization (Table S1). For extrapolation of the reaction kinetics, the plateau value was set to the initial absorbance at λ=λ∆max. The following equation was used for non-linear regression:
# y = (y0 − Plateau)e−kx + Plateau
# Figure S3: Left: UV-Vis spectrum of 15c (50 µM) in assay buffer (5% DMSO, v/v) at the thermal equilibrium (∆) and the photostationary state (PSS) after UV irradiation (365 nm). Right:
# Absorbance of 15c (50 µm) in assay buffer (5% DMSO, v/v) at λ∆max = 328 nm after 5 minutes of UV (365 nm) irradiation.
# as §12
# Sirt2 [3] = biological target: T2, Sirt2; set-up: method as in PMID 29685963; details: lead 3, previously published; read-out: Sirt2 inhibition, IC50; cited from earlier work
# [4] = read-out: Sirt1 inhibition, percent inhibition relative to controls
# [5] = read-out: Sirt3 inhibition, percent inhibition relative to controls
compound,measurement,setting,value
COC(=O)c1cncc(/N=N/c2cc(C)c(N)c(C)c2)c1 [6 f],melting point,,190.6 °C
same,Sirt1 inhibition (class),Sirt1,n.i. (n.i.: no inhibition detected (<30 % @ 100 μM))
same,Sirt2 inhibition (class),Sirt2 [1],n.i. (n.i.: no inhibition detected (<30 % @ 100 μM))
same,Sirt3 inhibition (class),Sirt3,n.i. (n.i.: no inhibition detected (<30 % @ 100 μM))
Cc1cc(O)cc(C)c1/N=N/c1cncc(C(N)=O)c1 [7 a],inhibition at 50 µM,Sirt1; [4],14%
same,IC50,Sirt2 [1],7.9 ± 0.6 µM
same,IC50,Sirt3,9.5 ± 0.9 µM
Cc1cc(/N=N/c2cncc(C(N)=O)c2)cc(C)c1O [7 b],melting point,,166.4 °C
same,inhibition at 50 µM,Sirt1; [4],19%
same,IC50,Sirt2 [1],10.8 ± 0.6 µM
same,thermal Z→E isomerization (in words),[2]; in acetonitrile,rapid thermal isomerization
same,IC50,Sirt3,7.9 ± 0.5 µM
COc1cc(/N=N/c2cncc(C(N)=O)c2)cc(OC)c1O [7 d],melting point,,250.2 °C
same,inhibition at 10 µM,Sirt1; [4],10%
same,inhibition at 10 µM,Sirt2 [1],62%
same,inhibition at 50 µM,"Sirt3; @ 50 μM, read-out: Sirt3 inhibition, percent inhibition relative to controls",39%
CN(C)c1ccc(/N=N/c2cncc(C(N)=O)c2)cc1 [7 e],inhibition at 10 µM,Sirt1; [4],17%
same,inhibition at 10 µM,Sirt2 [1],54%
same,inhibition at 10 µM,Sirt3; [5],66%
CNC(=O)c1cncc(/N=N/c2cc(C)c(N)c(C)c2)c1 [12 a],inhibition at 100 µM,"Sirt1; @ 100 μM, read-out: Sirt1 inhibition, percent inhibition relative to controls",33%
same,inhibition at 100 µM,Sirt2 [1],45%
same,inhibition at 100 µM,Sirt3; [5],45%
CCNC(=O)c1cncc(/N=N/c2cc(C)c(N)c(C)c2)c1 [12 b],Sirt1 inhibition (class),Sirt1,n.i. (n.i.: no inhibition detected (<30 % @ 100 μM))
same,inhibition at 10 µM,Sirt2 [1],16%
same,inhibition at 10 µM,Sirt3; [5],11%
CCCCNC(=O)c1cncc(/N=N/c2cc(C)c(N)c(C)c2)c1 [12 c],Sirt1 inhibition (class),Sirt1,n.i. (n.i.: no inhibition detected (<30 % @ 100 μM))
same,inhibition at 10 µM,Sirt2 [1],17%
same,inhibition at 10 µM,Sirt3; [5],11%
Cc1cc(/N=N/c2cncc(C(=O)NCCO)c2)cc(C)c1N [12 d],Sirt1 inhibition (class),Sirt1,n.i. (n.i.: no inhibition detected (<30 % @ 100 μM))
same,inhibition at 100 µM,Sirt2 [1],43%
same,inhibition at 100 µM,Sirt3; [5],43%
NC(=O)c1cncc(OCc2cccc(/N=N/c3ccc(N4CCOCC4)cc3)c2)c1 [20 d],melting point,,202.1 °C
same,Sirt1 inhibition (class),Sirt1,n.i. (n.i.: no inhibition detected (<30 % @ 100 μM))
same,inhibition at 10 µM,Sirt2 [1],49%
same,IC50,Sirt2 [1],~10 µM
same,thermal Z→E isomerization (in words),[2]; aqueous solution,rapid thermal Z→E isomerization
same,inhibition at 10 µM,Sirt3; [5],33%
Cc1cc(O)cc(C)c1/C=C/c1cncc(C(N)=O)c1 [compound 3],IC50,Sirt2 [3],25 µM
CCOC(=O)c1cncc(/N=N/c2cc(C)c(N)c(C)c2)c1 [compound 11],Sirt1 inhibition (class),Sirt1,n.i. (n.i.: no inhibition detected (<30 % @ 100 μM))
same,Sirt2 inhibition (class),Sirt2 [1],n.i. (n.i.: no inhibition detected (<30 % @ 100 μM))
same,Sirt3 inhibition (class),Sirt3,n.i. (n.i.: no inhibition detected (<30 % @ 100 μM))
